According to patent publication US11053204B2, “Pyrimidinyloxy benzene derivatives as herbicides” (FMC Corporation, priority 2015, dated 2021):

Key:
Type in all cases: in vivo
[1] = test system: barnyardgrass (Echinochloa crus-galli); assay: Test C preemergence, plant response rating; settings: Echinochloa crus-galli, pre-emergence, Preemergence
[2] = test system: speedwell (bird's-eye speedwell, Veronica persica); assay: Test C postemergence, plant response rating; settings: for Speedwell plant response rating: scale 0 to 100 (0 no effect, 100 complete control)
Summary of the method: (§1)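 Both timings shared one formulation, a non-phytotoxic solvent mixture with surfactant, and a greenhouse period of 13 to 15 d. Preemergence used seeded loam/sand or silt loam soil, postemergence used 2 to 18 cm plants; visual ratings ran from 0 (no effect) to 100 (complete control).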

[3] = test system: Canada thistle (Cirsium arvense); assay: Test C postemergence, plant response rating; settings: for Canada Thistle plant response rating: scale 0 to 100 (0 no effect, 100 complete control)
Summary of the method: as §1

[4] = test system: wild mustard (Sinapis arvensis); assay: Test C postemergence, plant response rating; settings: for Mustard, Wild plant response rating: scale 0 to 100 (0 no effect, 100 complete control)
Summary of the method: as §1

[5] = test system: pigweed, palmer (palmer pigweed, Amaranthus palmeri); assay: Test C postemergence, plant response rating; settings: for Pigweed, Palmer plant response rating: scale 0 to 100 (0 no effect, 100 complete control)
Summary of the method: as §1

[6] = test system: buckwheat, wild (wild buckwheat, Polygonum convolvulus); assay: Test C postemergence, plant response rating; settings: for Buckwheat, Wild plant response rating: scale 0 to 100 (0 no effect, 100 complete control)
Summary of the method: as §1

[7] = test system: field violet (Viola arvensis); assay: Test C postemergence, plant response rating; settings: for Field Violet plant response rating: scale 0 to 100 (0 no effect, 100 complete control)
Summary of the method: as §1

[8] = test system: windgrass (Apera spica-venti); assay: Test C postemergence, plant response rating
Summary of the method: as §1

[9] = test system: nightshade (eastern black nightshade, Solanum ptycanthum); assay: Test C postemergence, plant response rating; settings: for Nightshade plant response rating: scale 0 to 100 (0 no effect, 100 complete control)
Summary of the method: as §1

[10] = test system: geranium, cutleaf (cutleaf geranium, Geranium dissectum); assay: Test C postemergence, plant response rating; settings: for Geranium, Cutleaf plant response rating: scale 0 to 100 (0 no effect, 100 complete control)
Summary of the method: as §1

[11] = test system: field poppy (Papaver rhoeas); assay: Test C postemergence, plant response rating; settings: for Field Poppy plant response rating: scale 0 to 100 (0 no effect, 100 complete control)
Summary of the method: as §1

[12] = test system: wild poinsettia (Euphorbia heterophylla); assay: Test C preemergence, plant response rating
[13] = test system: windgrass (Apera spica-venti); assay: Test C preemergence, plant response rating
[14] = test system: oat, wild (wild oat Avena fatua); assay: Test C preemergence, plant response rating
[15] = test system: nightshade (eastern black nightshade, Solanum ptycanthum); assay: Test C preemergence, plant response rating
[16] = test system: surinam grass (Brachiaria decumbens); assay: Test C preemergence, plant response rating
[17] = test system: johnsongrass (Sorghum halepense); assay: Test C preemergence, plant response rating
[18] = test system: galium (catchweed bedstraw, Galium aparine); assay: Test C preemergence, plant response rating
[19] = test system: pigweed, palmer (palmer pigweed, Amaranthus palmeri); assay: Test C preemergence, plant response rating

O=C(CCC(F)(F)F)c1c(Cl)cccc1Oc1ncc(Cl)cn1 [Compound 107, 1-[2-chloro-6-[(5-chloro-2-pyrimidinyl)oxy]phenyl]-4,4,4-trifluoro-1-butanone]
pest or weed control at 125 g/ha ([1]; 125 g ai/ha, scale of 0 to 100): 100% | pest or weed control at 16 g/ha ([1]; 16 g ai/ha, scale 0 to 100): 65% | pest or weed control at 31 g/ha ([1]; 31 g ai/ha, scale 0 to 100): 85% | pest or weed control at 62 g/ha ([1]; 62 g ai/ha, scale 0 to 100): 100% | Plant response rating, Speedwell ([2]; 16 g ai/ha, scale of 0 to 100): 100 | Plant response rating, Speedwell ([2]; 31 g ai/ha, scale 0 to 100): 100 | Speedwell plant response rating ([2]; 62 g ai/ha): 100 | Speedwell plant response rating ([2]; 125 g ai/ha): 100 | Plant response rating, Canada Thistle ([3]; 16 g ai/ha, scale of 0 to 100): 80 | Plant response rating, Canada Thistle ([3]; 31 g ai/ha, scale 0 to 100): 85 | Canada Thistle plant response rating ([3]; 62 g ai/ha): 90 | Canada Thistle plant response rating ([3]; 125 g ai/ha): 90 | Plant response rating, Mustard, Wild ([4]; 16 g ai/ha, scale of 0 to 100): 85 | Plant response rating, Mustard, Wild ([4]; 31 g ai/ha, scale 0 to 100): 90 | Mustard, Wild plant response rating ([4]; 62 g ai/ha): 95 | Mustard, Wild plant response rating ([4]; 125 g ai/ha): 100 | Plant response rating, Pigweed, Palmer ([5]; 16 g ai/ha, scale of 0 to 100): 90 | Plant response rating, Pigweed, Palmer ([5]; 31 g ai/ha, scale 0 to 100): 95 | Pigweed, Palmer plant response rating ([5]; 62 g ai/ha): 100 | Pigweed, Palmer plant response rating ([5]; 125 g ai/ha): 100 | Plant response rating, Buckwheat, Wild ([6]; 16 g ai/ha, scale of 0 to 100): 45 | Plant response rating, Buckwheat, Wild ([6]; 31 g ai/ha, scale 0 to 100): 75 | Buckwheat, Wild plant response rating ([6]; 62 g ai/ha): 75 | Buckwheat, Wild plant response rating ([6]; 125 g ai/ha): 100 | Plant response rating, Field Violet ([7]; 16 g ai/ha, scale of 0 to 100): 95 | Plant response rating, Field Violet ([7]; 31 g ai/ha, scale 0 to 100): 98 | Field Violet plant response rating ([7]; 62 g ai/ha): 98 | Field Violet plant response rating ([7]; 125 g ai/ha): 100 | Plant response rating, Windgrass ([8]; 16 g ai/ha, scale of 0 to 100): 5 | Plant response rating, Windgrass ([8]; 31 g ai/ha, scale 0 to 100): 15 | Windgrass plant response rating ([8]; 125 g ai/ha, scale 0 to 100 (0 no effect, 100 complete control)): 50 | Plant response rating, Nightshade ([9]; 16 g ai/ha, scale of 0 to 100): 75 | Plant response rating, Nightshade ([9]; 31 g ai/ha, scale 0 to 100): 90 | Nightshade plant response rating ([9]; 62 g ai/ha): 98 | Nightshade plant response rating ([9]; 125 g ai/ha): 100 | Plant response rating, Geranium, Cutleaf ([10]; 16 g ai/ha, scale of 0 to 100): 25 | Plant response rating, Geranium, Cutleaf ([10]; 31 g ai/ha, scale 0 to 100): 35 | Geranium, Cutleaf plant response rating ([10]; 62 g ai/ha): 60 | Geranium, Cutleaf plant response rating ([10]; 125 g ai/ha): 75 | Plant response rating, Field Poppy ([11]; 16 g ai/ha, scale of 0 to 100): 80 | Plant response rating, Field Poppy ([11]; 31 g ai/ha, scale 0 to 100): 98 | Field Poppy plant response rating ([11]; 62 g ai/ha): 98 | Field Poppy plant response rating ([11]; 125 g ai/ha): 100 | Plant response rating, Poinsettia, Wild ([12]; 31 g ai/ha, scale 0 to 100): 10 | Plant response rating, Poinsettia, Wild ([12]; 62 g ai/ha, scale 0 to 100): 40 | Plant response rating, Poinsettia, Wild ([12]; 125 g ai/ha, scale of 0 to 100): 70 | Plant response rating, Windgrass ([13]; 31 g ai/ha, scale 0 to 100): 100 | Plant response rating, Windgrass ([13]; 62 g ai/ha, scale 0 to 100): 100 | Plant response rating, Windgrass ([13]; 125 g ai/ha, scale of 0 to 100): 100 | Plant response rating, Oat, Wild ([14]; 31 g ai/ha, scale 0 to 100): 5 | Plant response rating, Oat, Wild ([14]; 62 g ai/ha, scale 0 to 100): 30 | Plant response rating, Oat, Wild ([14]; 125 g ai/ha, scale of 0 to 100): 65 | Plant response rating, Nightshade ([15]; 31 g ai/ha, scale 0 to 100): 60 | Plant response rating, Nightshade ([15]; 62 g ai/ha, scale 0 to 100): 80 | Plant response rating, Nightshade ([15]; 125 g ai/ha, scale of 0 to 100): 90 | Plant response rating, Surinam Grass ([16]; 31 g ai/ha, scale 0 to 100): 60 | Plant response rating, Surinam Grass ([16]; 62 g ai/ha, scale 0 to 100): 98 | Plant response rating, Surinam Grass ([16]; 125 g ai/ha, scale of 0 to 100): 98 | Plant response rating, Johnsongrass ([17]; 31 g ai/ha, scale 0 to 100): 30 | Plant response rating, Johnsongrass ([17]; 62 g ai/ha, scale 0 to 100): 70 | Plant response rating, Johnsongrass ([17]; 125 g ai/ha, scale of 0 to 100): 80 | Plant response rating, Galium ([18]; 31 g ai/ha, scale 0 to 100): 60 | Plant response rating, Galium ([18]; 62 g ai/ha, scale 0 to 100): 90 | Plant response rating, Galium ([18]; 125 g ai/ha, scale of 0 to 100): 95 | Plant response rating, Pigweed, Palmer ([19]; 31 g ai/ha, scale 0 to 100): 100 | Plant response rating, Pigweed, Palmer ([19]; 62 g ai/ha, scale 0 to 100): 100 | Plant response rating, Pigweed, Palmer ([19]; 125 g ai/ha, scale of 0 to 100): 100
